In PMC2099433, “The binding site for neohesperidin dihydrochalcone at the human sweet taste receptor” (BMC Structural Biology, 2007):
Numbering of substitutions follows the chain as printed. Where a SMILES comes first, the peptide text is derived from it.

Columns and labels:
[1] = target: T1, hTAS1R2 + hTAS1R3 S726A^5.39 (Homo sapiens, UniProt Q7RTX0+Q8TE23, S726A); assay: Calcium response (FLIPR), hTAS1R3 mutant coexpressed with hTAS1R2; assay type: cell-based; conditions: variant S726A^5.39; for Emax: read-out: maximal signal (% of wt)
T1 construct: expressed in transfected cells; host or cells: HEK293T cells stably expressing G16Gust44
T1 sequence (Q7RTX0 21-852 S726A): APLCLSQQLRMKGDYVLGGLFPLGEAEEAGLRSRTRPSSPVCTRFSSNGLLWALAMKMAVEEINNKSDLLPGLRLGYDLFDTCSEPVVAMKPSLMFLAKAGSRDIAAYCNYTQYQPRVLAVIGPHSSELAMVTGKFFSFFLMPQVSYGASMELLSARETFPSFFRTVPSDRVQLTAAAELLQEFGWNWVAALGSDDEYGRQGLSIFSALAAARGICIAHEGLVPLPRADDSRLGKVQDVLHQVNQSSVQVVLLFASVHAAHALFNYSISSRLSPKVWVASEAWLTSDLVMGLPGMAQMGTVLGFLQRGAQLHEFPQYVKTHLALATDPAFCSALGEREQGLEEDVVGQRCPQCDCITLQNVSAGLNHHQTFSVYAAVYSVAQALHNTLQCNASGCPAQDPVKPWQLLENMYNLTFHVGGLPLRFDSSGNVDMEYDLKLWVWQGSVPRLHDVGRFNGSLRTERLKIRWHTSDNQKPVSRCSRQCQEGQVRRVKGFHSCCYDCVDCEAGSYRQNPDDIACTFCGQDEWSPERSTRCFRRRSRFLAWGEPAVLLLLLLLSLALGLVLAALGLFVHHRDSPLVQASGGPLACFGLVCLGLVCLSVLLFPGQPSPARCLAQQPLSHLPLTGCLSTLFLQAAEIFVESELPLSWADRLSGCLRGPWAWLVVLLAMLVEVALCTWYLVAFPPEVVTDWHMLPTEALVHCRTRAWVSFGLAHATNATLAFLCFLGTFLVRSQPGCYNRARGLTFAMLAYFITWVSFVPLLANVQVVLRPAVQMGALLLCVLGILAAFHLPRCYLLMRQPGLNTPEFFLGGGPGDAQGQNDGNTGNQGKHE
T1 sequence (Q8TE23 20-839): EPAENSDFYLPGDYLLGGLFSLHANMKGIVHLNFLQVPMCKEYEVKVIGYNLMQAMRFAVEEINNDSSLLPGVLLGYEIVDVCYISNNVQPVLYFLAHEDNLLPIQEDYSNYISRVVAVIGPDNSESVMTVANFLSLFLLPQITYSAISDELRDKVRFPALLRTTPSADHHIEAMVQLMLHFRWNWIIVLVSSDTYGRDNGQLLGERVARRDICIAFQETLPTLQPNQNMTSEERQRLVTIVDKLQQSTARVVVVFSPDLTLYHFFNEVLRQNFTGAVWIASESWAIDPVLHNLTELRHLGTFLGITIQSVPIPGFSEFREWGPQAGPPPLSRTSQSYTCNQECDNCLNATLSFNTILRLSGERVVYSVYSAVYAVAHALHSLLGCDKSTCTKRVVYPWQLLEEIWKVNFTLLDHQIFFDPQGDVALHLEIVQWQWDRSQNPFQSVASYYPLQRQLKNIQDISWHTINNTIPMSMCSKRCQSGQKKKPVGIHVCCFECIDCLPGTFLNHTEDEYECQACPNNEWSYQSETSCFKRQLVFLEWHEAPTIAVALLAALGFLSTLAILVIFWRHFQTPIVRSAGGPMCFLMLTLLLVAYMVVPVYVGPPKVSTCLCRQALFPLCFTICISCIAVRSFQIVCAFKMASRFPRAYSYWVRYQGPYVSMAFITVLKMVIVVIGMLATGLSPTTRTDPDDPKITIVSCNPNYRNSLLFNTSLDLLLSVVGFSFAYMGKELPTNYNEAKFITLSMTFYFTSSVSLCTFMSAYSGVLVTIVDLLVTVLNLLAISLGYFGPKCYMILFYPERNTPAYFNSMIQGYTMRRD
Procedure: (§1) The cDNAs for TAS1Rs tagged at the C-terminus with the herpes simplex virus glycoprotein D (HSV) were transiently transfected into HEK293T cells stably expressing the chimeric G-protein subunit G16Gust44 [44] using Lipofectamine 2000 (Invitrogen, Carlsbad, CA) according to the manufacturer's protocol. 3–4 hours after transfection, DMEM was replaced by low-glucose DMEM supplemented with GlutaMAX and 10% dialyzed FBS (Invitrogen, Carlsbad, CA). 24 h post transfection, cells were loaded for 1 h with the calcium sensitive dye Fluo4-AM (2 μg/ml in DMEM, Molecular Probes, Carlsbad, CA). […] We monitored calcium mobilization following receptor stimulation with sweet tastants by an automated fluorometric imaging plate reader (FLIPR, Molecular Devices, Sunnyvale, CA). Compounds used as stimuli (Sigma-Aldrich, St. Louis, MO; Merck, Whitehouse Station, NJ) were dissolved in C1 solution. All data were collected from at least three independent experiments carried out in duplicate. The obtained calcium signals were corrected for the response of mock transfected cells and normalized to the fluorescence of cells prior to the application of the stimulus using ΔF/F = (F-F0)/F0.

[2] = target: T2, hTAS1R2 + hTAS1R3 W775A^6.48 (Homo sapiens, UniProt Q7RTX0+Q8TE23, W775A); assay: as above; assay type: cell-based; conditions: for EC50 / Emax: variant W775A^6.48; for EC50: (>) EC50 not calculable because saturation is not reached; for Emax: read-out: maximal signal (% of wt)
T2 construct: expressed in transfected cells; host or cells: HEK293T cells stably expressing G16Gust44
T2 sequence (Q8TE23 20-839): T1 sequence (Q8TE23 20-839)
T2 sequence (Q7RTX0 21-852 W775A): T1 sequence (Q7RTX0 21-852 S726A) with A706S, W755A
Procedure: as §1

Compound: COc1ccc(CCC(=O)c2c(O)cc(O[C@@H]3O[C@H](CO)[C@@H](O)[C@H](O)[C@H]3O[C@@H]3O[C@@H](C)[C@H](O)[C@@H](O)[C@H]3O)cc2O)cc1O [NHDC, neohesperidin dihydrochalcone]
- EC50 [1]: 900 ± 300 µM
- Emax [1]: 60 ± 50%
- EC50 [2]: > 3000 µM
- Emax [2]: 30 ± 41%

Compound: O=S(=O)(O)NC1CCCCC1 [cyclamate]
- EC50 [1]: > 10000 µM
- receptor activation ([2]; mutant W775A^6.48, any tested concentration): could not be activated at any tested concentration

Compound: COC(=O)[C@H](Cc1ccccc1)NC(=O)[C@@H](N)CC(=O)O [aspartame] (HELM PEPTIDE1{D.F.[CO[*:1]]}$$$$V2.0)
- EC50 [1]: 900 ± 300 µM
- Emax [1]: 50 ± 2%
- EC50 [2]: 1900 ± 200 µM
- Emax [2]: 20 ± 30%
